What all share (test): microbe, parasite or virus in culture
What all share (assay type): cell-based

Experiment [1] deals with HCV 2a JFH-1 Rluc cells (dicistronic genotype 2a JFH-1 replicon, RLuc reporter). The note with it: Hepatitis C virus, genotype 2a JFH-1 replicon, read-out: 2a JFH. The protocol:
(§1) Evaluation of cell-based anti-HCV activity: Antiviral potency (EC50) was determined using a Renilla luciferase (RLuc)-based HCV replicon reporter assay. To perform the assay for genotype 1 and 2a JFH-1, HCV 1b RLuc cells (harboring a dicistronic genotype 1b Con1 replicon that encodes a RLuc reporter), or HCV 1a RLuc cells (harboring a dicistronic genotype 1a H77 replicon that encodes a RLuc reporter), or HCV 2a JFH-1 Rluc cells (harboring a dicistronic genotype 2a JFH-1 replicon that encodes a RLuc reporter) were dispensed into 384-well plates. To perform the assay for genotype 2a (with M31 present) or 2b, HCV 2a Rluc or 2b Rluc cells (both with M31 present) harboring a dicistronic NS5A chimeric genotype 2a JFH-1 replicon that encodes a RLuc reporter and either genotype 2a J6 strain NS5A gene or genotype 2b MD2b-1 NS5A gene (based on Los Alamos HCV database isolates, both with M31 present) respectively, were dispensed into 384-well plates. To perform the assay for genotype 3 and 4, HCV 3a RLuc or 4a Rluc cells harboring a dicistronic NS5A chimeric genotype 1b Con1 replicon that encodes a RLuc reporter and either a consensus genotype 3a NS5A gene or genotype 4a NS5A gene (based on Los Alamos HCV database isolates) respectively, were dispensed into 384-well plates. Compounds were re-suspended in DMSO at a concentration of 10 mM and serially diluted in DMSO either manually or using an automated pipeting instrument. Serially diluted compounds were mixed with cell culture media and added to the seeded cells. […] 72 hours later, cells were lysed and Renilla luciferase activity quantified as recommended by the manufacturer (Promega-Madison, Wis.). Non-linear regression was performed to calculate EC50 values.
For orientation: In antiviral work, replicon cells carry a viral genome segment that copies itself.

In experiment [2] the test system is HCV 3a RLuc cells (NS5A chimeric genotype 1b Con1 replicon with consensus genotype 3a NS5A gene). Conditions: Hepatitis C virus. The protocol: as §1
Experiment [3] deals with HCV 1b RLuc cells (dicistronic genotype 1b Con1 replicon, RLuc reporter). Conditions: Hepatitis C virus, read-out: 1b (nM). The protocol: as §1
The test system of experiment [4] is HCV 1a RLuc cells (dicistronic genotype 1a H77 replicon, RLuc reporter). The note with it: Hepatitis C virus, genotype 1a H77 replicon, read-out: 1a. The protocol: as §1
The test system of experiment [5] is HCV 4a Rluc cells (NS5A chimeric genotype 1b Con1 replicon with genotype 4a NS5A gene). Conditions: Hepatitis C virus, read-out: 4a. The protocol: as §1
Where [6] appears, read: read-out: 3a, genotype 3a NS5A chimeric 1b Con1 replicon.
Where [7] appears, read: read-out: 3a, Table 2, genotype 3a NS5A chimeric replicon.

Where two headings read alike, the source gives them in different places. Bounds are passed on as bounds.

The source of these data is US10344019B2 (priority 2010, dated 2019).

With `COC(=O)NC(C(=O)N1CCC[C@H]1c1ncc(-c2ccc3cc(-c4ccc(-c5cnc([C@@H]6C[C@@H](C)CN6C(=O)[C@@H](NC(=O)OC)C6CCOCC6)[nH]5)cc4)ccc3c2)[nH]1)c1ccccc1` (some centres unmarked) [Example 204], the EC50 in experiment [1] (RLuc reporter) was 0.001 to 0.999 nM; in experiment [2] (setting [6]) it was 0.001 to 0.99 nM; in experiment [3], 0.03 nM; in experiment [4] (RLuc reporter), 0.001 to 0.999 nM; in experiment [5], 0.001 to 0.99 nM.
As for `COC(=O)N[C@H](C(=O)N1CCC[C@H]1c1ncc(-c2ccc3cc(-c4ccc(-c5cnc([C@@H]6[C@@H]7CC[C@@H](C7)N6C(=O)[C@H](NC(=O)OC)c6ccccc6)[nH]5)cc4)ccc3c2)[nH]1)C(C)C` [Example 51], the EC50 is 1 to 44 nM in experiment [1] (72 h, Table 2, 72 hours); 1 to 4.99 nM in experiment [2] (setting [7]); 0.012 nM in experiment [3] (72 h); 1 to 44 nM in experiment [4] (72 h, Table 2, 72 hours); 0.001 to 0.99 nM in experiment [5].
With `COC(=O)N[C@H](C(=O)N1CCC[C@H]1c1nc2ccc3cc(-c4ccc5cc(-c6cnc([C@@H]7CCCN7C(=O)[C@H](NC(=O)OC7COC7)c7ccccc7)[nH]6)ccc5c4)ccc3c2[nH]1)C(C)C` [Example 289], the EC50 in experiment [1] (RLuc reporter) was 0.001 to 0.999 nM; in experiment [2] (setting [6]) it was 0.001 to 0.99 nM; in experiment [3], 0.01 nM; in experiment [4] (RLuc reporter), 0.001 to 0.999 nM; in experiment [5] it was 0.001 to 0.99 nM.
As for `COC(=O)N[C@H](C(=O)N1CCC[C@H]1c1nc2ccc3cc(-c4ccc5cc(-c6cnc([C@@H]7COCCN7C(=O)[C@H](NC(=O)OC)c7ccccc7)[nH]6)ccc5c4)ccc3c2[nH]1)C(C)C` [Example 216], the EC50 in experiment [1] (RLuc reporter) is 0.001 to 0.999 nM; in experiment [2] (setting [6]) it was 0.001 to 0.99 nM; in experiment [3], 0.006 nM; in experiment [4] (RLuc reporter) it was 0.001 to 0.999 nM; in experiment [5], 0.001 to 0.99 nM.
In the case of `COC(=O)N[C@@H](C)C(=O)N1CCC[C@H]1c1nc2c([nH]1)-c1ccc(-c3ccc4cc(-c5cnc([C@@H]6CCCN6C(=O)[C@H](NC(=O)OC)c6ccccc6)[nH]5)ccc4c3)cc1CC2` [Example 272], the EC50 in experiment [1] (RLuc reporter) is more than 44 nM; in experiment [2] (setting [6]), more than 5 nM; in experiment [4] (RLuc reporter) it was more than 44 nM; in experiment [5] it was 1 to 4.99 nM.
In the case of `COC(=O)N[C@H](C(=O)N1CCC[C@H]1c1nc2c([nH]1)-c1ccc(-c3ccc4cc(-c5cnc([C@@H]6CCCN6C(=O)[C@@H](NC(=O)OC)C6CCOCC6)[nH]5)ccc4c3)cc1CC2)C(C)C` [Example 209], the EC50 in experiment [1] (RLuc reporter) is 0.001 to 0.999 nM; in experiment [2] (setting [6]) it was 0.001 to 0.99 nM; in experiment [3], 0.014 nM; in experiment [4] (RLuc reporter) it was 0.001 to 0.999 nM.
For `CCN(CC)[C@@H](C(=O)N1CCC[C@H]1c1ncc(-c2ccc3cc(-c4ccc(-c5cnc([C@@H]6CC7(COCO7)CN6C(=O)[C@@H](NC(=O)OC)C(C)C)[nH]5)cc4)ccc3c2)[nH]1)c1ccccc1` (some centres unmarked) [Example 36], the EC50 was 0.001 to 0.999 nM in experiment [1] (72 h, Table 2, 72 hours); 0.001 to 0.99 nM in experiment [2] (setting [7]); 0.01 nM in experiment [3] (72 h); 0.001 to 0.999 nM in experiment [4] (72 h, Table 2, 72 hours).
In the case of `CCN(CC)C(C(=O)N1CCC[C@H]1c1ncc(-c2ccc(-c3ccc4cc(-c5cnc([C@@H]6CCCN6C(=O)[C@@H](NC(=O)OC)C(C)C)[nH]5)ccc4c3)cc2)[nH]1)c1ccccc1` (some centres unmarked) [Example 138], the EC50 in experiment [1] (RLuc reporter) was 0.001 to 0.999 nM; in experiment [2] (setting [6]), 0.001 to 0.99 nM; in experiment [3] it was 0.006 nM; in experiment [4] (RLuc reporter), 0.001 to 0.999 nM.
Regarding `COC(=O)N[C@H](C(=O)N1CCC[C@H]1c1ncc(-c2ccc3cc(-c4ccc(-c5cnc([C@@H]6CCCN6C(=O)[C@H](NC(=O)OC)c6ccc(OC)cc6)[nH]5)cc4)ccc3c2)[nH]1)C(C)C` [Example 109], the EC50 was more than 44 nM in experiment [1] (RLuc reporter), more than 5 nM in experiment [2] (setting [6]), 1.6 nM in experiment [3] and 1 to 44 nM in experiment [4] (RLuc reporter).
As for `COC(=O)N[C@H](C(=O)N1CCC[C@H]1c1ncc(-c2ccc(-c3ccc4cc(-c5cnc([C@@H]6CCCN6C(=O)C(c6ccccc6)N(C)C)[nH]5)ccc4c3)cc2)[nH]1)C(C)C` (some centres unmarked) [Example 110], the EC50 in experiment [1] (RLuc reporter) was 0.001 to 0.999 nM; in experiment [2] (setting [6]), 0.001 to 0.99 nM; in experiment [3] it was 0.009 nM; in experiment [4] (RLuc reporter) it was 0.001 to 0.999 nM.
